This note sets out measurements from patent publication US9434760B2, “Prolinamide derivatives as thrombin inhibitors, preparation method and application thereof” (SHANGHAI INSTITUTE OF PHARMACEUTICAL INDUSTRY, priority 2010, dated 2016).

Structures can show the parent of a compound that is named as a salt.

The target of the first experiment is T1, lyophilized bovine thrombin standard substance purified from bovine blood (Bos taurus, UniProt P00735).
T1 construct: lyophilized bovine thrombin standard substance purified from bovine blood; from tissue; host or cells: bovine blood
Nature of the experiment: Test for antithrombin activity (chromogenic substrate S2238). Type of experiment: biochemical.
Details: not given
The text has this:
Wherein ΔAs represents the rate of change in inhibited absorbance value, and ΔAc represents the rate of change in uninhibited absorbance values.
Wherein h represents Hill coefficient.
Broadly, the IC50 is the concentration that gives 50% inhibition. `CC(C)CC(NS(=O)(=O)c1ccccc1)C(=O)N1CCC[C@H]1C(=O)NCc1ccc(C(=N)N)cc1` (stereo partly drawn) [Example 2, N-benzenesulfonyl-D,L-leucyl-L-prolyl-[(4-amidinophenyl)methyl]amide acetate]: the IC50 was 0.115 µM. `CC(C)C[C@@H](NS(=O)(=O)Cc1ccccc1)C(=O)N1CCC[C@H]1C(=O)NCc1ccc(C(=N)N)cc1` [Example 21, N-benzylsulfony-D-leucyl-L-prolyl-[(4-amidinophenyl)methyl]amide hydrochloride] gave an IC50 of 0.17 µM.

As for `N=C(N)c1ccc(CNC(=O)[C@@H]2CCN2C(=O)[C@H](NCC(=O)O)C2CCCCC2)cc1` [melagatran, reference compound], the IC50 was 0.069 µM.

The experiment is the same for the next values; noted with them: 0.15 U/ml bovine thrombin, incubation for 15 minutes, substrate S2238 (0.075 μM), absorbance at 405 nm during 4 minutes, room temperature; read-out: IC50.
On to `CC(C)CC(NC(=O)c1ccccc1)C(=O)N1CCC[C@H]1C(=O)NCc1ccc(C(=N)N)cc1` (mixture of isomers) [Example 6, N-benzoyl-D,L-leucyl-L-prolyl-[(4-amidinophenyl)methyl]amide acetate], for which the IC50 came out at 0.154 µM.

In the case of `CC[C@H](C)[C@H](NC(=O)c1ccccc1)C(=O)N1CCC[C@H]1C(=O)NCc1ccc(C(=N)N)cc1` (mixture of isomers) [Example 12, N-benzoyl-D,L-isoleucyl-L-prolyl-[(4-amidinophenyl)methyl]amide acetate], the IC50 came out at 0.561 µM. For `CC(C)C[C@@H](NS(=O)(=O)c1ccccc1)C(=O)N1CCC[C@H]1C(=O)NCc1ccc(C(=N)NC(=O)OCc2ccccc2)cc1` [Example 18], the IC50 was 0.03 µM. The same measure, in the same setting: with `CC(C)C[C@@H](NS(=O)(=O)c1ccccc1)C(=O)N1CCC[C@H]1C(=O)NCc1ccc(C(=N)N)cc1` [Example 19, N-benzenesulfony-D-leucyl-L-prolyl-[(4-amidinophenyl)methyl]amide hydrochloride] the figure was 0.012 µM. Still for that read-out and setting: with `CC(C)C[C@@H](NS(=O)(=O)Cc1ccccc1)C(=O)N1CCC[C@H]1C(=O)NCc1ccc(C(=N)NC(=O)OCc2ccccc2)cc1` [Example 20] the figure was 0.246 µM; with `CC(C)C[C@@H](NC(=O)c1ccccc1)C(=O)N1CCC[C@H]1C(=O)NCc1ccc(C(=N)N)cc1` [Example 22, N-benzoyl-D-leucyl-L-prolyl-[(4-amidinophenyl)methyl]amide hydrochloride], 0.055 µM. The same measure, in the same setting: with `CC(C)C[C@@H](NC(=O)Cc1ccccc1)C(=O)N1CCC[C@H]1C(=O)NCc1ccc(C(=N)N)cc1` [Example 23, N-phenylacetyl-D-leucyl-L-prolyl-[(4-amidinophenyl)methyl]amide hydrochloride] the figure was 0.472 µM. As to `CC(C)C[C@@H](NCC(=O)O)C(=O)N1CCC[C@H]1C(=O)NCc1ccc(C(=N)N)cc1` [Example 24, N-carboxylmethyl-D-leucyl-L-prolyl-[(4-amidinophenyl)methyl]amide hydrochloride], the IC50 was found to be 0.561 µM. Still for that read-out and setting: with “N-benzenesulfonyl-D-leucyl-L-prolyl-[1-(aminoiminomethyl)-pyrrol-3-yl]methyl amide hydrochloride [Example 27]” the figure was 0.008 µM; with “N-benzylsulfonyl-D,L-leucyl-L-prolyl-{[4-(N′-hydroxyl) amidinophenyl]methyl}amide acetate [Example 4]”, 0.047 µM.
